The EC50 is the concentration at which the effect is half-maximal.

This experiment concerns the target T1, ABCD2 WT (Homo sapiens, UniProt Q9UBJ2).
T1 construct: expressed in transfected cells
T1 sequence (Q9UBJ2 1-740): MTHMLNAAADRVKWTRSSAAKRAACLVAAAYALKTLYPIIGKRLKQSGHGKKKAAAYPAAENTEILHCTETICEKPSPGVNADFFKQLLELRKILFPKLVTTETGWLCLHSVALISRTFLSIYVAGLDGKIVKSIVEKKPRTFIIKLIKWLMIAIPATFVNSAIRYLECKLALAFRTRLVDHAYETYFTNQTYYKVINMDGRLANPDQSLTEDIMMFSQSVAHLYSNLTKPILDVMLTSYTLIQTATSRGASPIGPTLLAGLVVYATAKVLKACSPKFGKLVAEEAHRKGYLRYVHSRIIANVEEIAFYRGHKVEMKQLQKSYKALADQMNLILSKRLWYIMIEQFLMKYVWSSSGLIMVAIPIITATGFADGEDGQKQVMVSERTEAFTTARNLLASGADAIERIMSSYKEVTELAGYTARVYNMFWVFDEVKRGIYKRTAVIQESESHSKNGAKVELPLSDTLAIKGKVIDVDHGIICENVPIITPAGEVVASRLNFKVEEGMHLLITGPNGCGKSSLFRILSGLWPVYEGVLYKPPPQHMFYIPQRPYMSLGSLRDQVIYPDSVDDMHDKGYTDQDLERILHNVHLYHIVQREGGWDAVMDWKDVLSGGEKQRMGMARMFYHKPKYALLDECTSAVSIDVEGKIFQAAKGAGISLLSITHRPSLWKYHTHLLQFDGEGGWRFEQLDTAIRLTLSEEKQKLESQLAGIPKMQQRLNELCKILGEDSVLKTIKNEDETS
The experiment can be described thus: D2 correction dose-response assay: ABCD2 WT HiBit protein expression. The note with it: HEK-293/ABCD2 WT cells, 24 hours treatment, HiBit luminescence; class combines EC50 and Mean MaxAct (fold); read-out: ABCD2 WT EC50, Emax. Type of experiment: cell-based. An outline of the steps: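 HEK-293 cells stably expressing HiBit-tagged human ABCD2 WT were treated with 11 doses (3-fold dilutions, top final 30 μM, 0.3% DMSO) for 24 h at 37 °C. Expression was measured by HiBit lytic luminescence after 1 h at 25 °C, giving EC50 and Emax.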
In general terms: The HiBiT peptide binds its large partner to form an active luciferase.

For `C#Cc1cncc(-c2ccc(NS(C)(=O)=O)c(Oc3c(C)cc(C)nc3C)n2)c1` [Compound I-212], the EC50 was less than 1 µM.

For the compound `Cc1cc(C2CC2)nc(C)c1Oc1nc(-c2ccnc(C#N)c2)ccc1NS(C)(=O)=O` [Compound I-213], the EC50 is greater than 25 µM.

Regarding `Cc1cc(C)c(Oc2nc(-c3cncc(C4COC4)c3)ccc2NS(C)(=O)=O)c(C)n1` [Compound I-216], the EC50 was less than 1 µM.

Regarding `CCS(=O)(=O)Nc1ccc(-c2cncc(C#N)c2)nc1Oc1c(C)cc(C(F)(F)F)nc1C` [Compound I-217], the half-maximal effective concentration (EC50) is less than 1 µM.

As for `Cc1cc(C(F)(F)F)nc(C)c1Oc1nc(-c2cncc(C#N)c2)ccc1NS(=O)(=O)C1CC1` [Compound I-218], the concentration giving a half-maximal response (EC50) is 10 to 25 µM.

In the case of `Cc1cc(C(F)(F)F)nc(C)c1Oc1nc(-c2ccnc(C#N)c2)ccc1NS(C)(=O)=O` [Compound I-219], the EC50 was less than 1 µM.

Regarding `Cc1cc(C)c(Oc2nc(-c3cncc(C(C)(C)O)c3)ccc2NS(C)(=O)=O)c(C)n1` [Compound I-220], the concentration for a half-maximal effect (EC50) is greater than 25 µM.

Regarding `Cc1cc(C)c(Oc2nc(-c3cncc(C#N)c3)ccc2N2CCCS2(=O)=O)c(C)n1` [Compound I-221], the concentration giving a half-maximal response (EC50) is greater than 25 µM.

`COc1cc(C)c(Oc2nc(-c3cncc(C#N)c3)ccc2NS(C)(=O)=O)c(C)n1` [Compound I-222]: the EC50 is less than 1 µM.

In the case of `Cc1nc(C)c(C(F)(F)F)cc1Oc1nc(-c2cncc(C#N)c2)ccc1NS(C)(=O)=O` [Compound I-225], the EC50 was less than 1 µM.

Consider `Cc1cc(Oc2nc(-c3cncc(C#N)c3)ccc2NS(C)(=O)=O)c(C)nc1C` [Compound I-226], for which the EC50 was less than 1 µM.

With `Cc1cc(C)c(Oc2nc(-c3cncc(CO)c3)ccc2NS(C)(=O)=O)c(C)n1` [Compound I-227], the EC50 was 1 to 10 µM.

On to `Cc1cc(C)c(Oc2nc(-c3cncc(C#N)c3)ccc2NS(=O)(=O)C2COC2)c(C)n1` [Compound I-228], for which the 50% effective concentration (EC50) was in the range of 1 to 10 µM.

As for `Cc1nc(C)c(C2CC2)cc1Oc1nc(-c2cncc(C#N)c2)ccc1NS(C)(=O)=O` [Compound I-229], the EC50 was 1 to 10 µM.

For `Cc1cc(C(F)F)nc(C)c1Oc1nc(-c2cncc(C#N)c2)ccc1NS(C)(=O)=O` [Compound I-230], the half-maximal effective concentration (EC50) was less than 1 µM.

Regarding `COCc1cncc(-c2ccc(NS(C)(=O)=O)c(Oc3c(C)cc(C)nc3C)n2)c1` [Compound I-231], the EC50 is less than 1 µM.

Take `Cc1cc(C)c(Oc2nc(-c3cncc(C4CC4)c3)ccc2NS(C)(=O)=O)c(C)n1` [Compound I-232]: the concentration for a half-maximal effect (EC50) was less than 1 µM.

`Cc1nc(C)c(Oc2nc(-c3cncc(C#N)c3)ccc2NS(C)(=O)=O)c(C)n1` [Compound I-234]: the half-maximal effective concentration (EC50) is less than 1 µM.

On to `Cc1cc(C2CC2)nc(C)c1Oc1nc(-c2cncc(C#N)c2)ccc1NS(=O)(=O)C1COC1` [Compound I-235], for which the EC50 is less than 1 µM.

For the compound `Cc1cc(C2CC2)nc(C)c1Oc1nc(-c2cncc(Cl)c2)ccc1NS(=O)(=O)C1COC1` [Compound I-236], the EC50 was less than 1 µM.

On to `Cc1cc(C)c(Oc2nc(-c3cncc(Cl)c3)ccc2NS(=O)(=O)C2COC2)c(C)n1` [Compound I-237], for which the concentration for a half-maximal effect (EC50) is less than 1 µM.

The record behind these values is patent US20250228835A1, “PYRIDINYLOXYPYRIDINES AND RELATED COMPOUNDS AND THEIR USE IN TREATING MEDICAL CONDITIONS” (Rectify Pharmaceuticals, Inc., priority 2024, published 2025).
